Among the test systems are 786-0 renal; ACHN renal; DU-145 prostate; HCT-116 colon; HL-60(TB) leukemia; HOP-62 NSCLC; K-562 leukemia; MALME-3M melanoma; MCF7 breast; MDA-MB-231 breast; MDA-N; NCI-H460 lung; NCI/ADR-RES ovarian; OVCAR-3 ovarian; OVCAR-4 ovarian; RXF 393 renal; SW-620 colon; T-47D breast; UACC-257 melanoma; UO-31 renal.
Holding throughout (experiment): NCI anticancer screen, dose series, 48 h

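Grown in 96-well plates, cells were treated for 48 hours with each compound at five concentrations. Insufficient inhibition: endpoint recorded as highest concentration tested. At the TGI there is no net growth.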

On to `COc1ccc(/C(=N/OCCCC(=O)O)c2cccs2)cc1`, for which the TGI with 786-0 renal, in the experiment on ACHN renal, in the experiment with DU-145 prostate, with HCT-116 colon, in the experiment on HL-60(TB) leukemia and in the experiment on HOP-62 NSCLC was greater than 100 µM each time. Also, the TGI in the experiment on K-562 leukemia, in the experiment with MALME-3M melanoma, with MCF7 breast, with MDA-MB-231 breast, with MDA-N and in the experiment with NCI-H460 lung was greater than 100 µM each time. The TGI with NCI/ADR-RES ovarian, in the experiment on OVCAR-3 ovarian, with OVCAR-4 ovarian, with RXF 393 renal, in the experiment with SW-620 colon and with T-47D breast was greater than 100 µM throughout. The TGI with UACC-257 melanoma and in the experiment with UO-31 renal was greater than 100 µM throughout.
For the compound `Nc1ccc2nc3n(c2c1)C(c1c(F)cccc1F)SC3` (stereo not given), the TGI in the experiment on 786-0 renal, in the experiment on ACHN renal, in the experiment with DU-145 prostate, with HCT-116 colon, in the experiment on HL-60(TB) leukemia and with HOP-62 NSCLC was greater than 100 µM each time. The TGI in the experiment on K-562 leukemia, in the experiment with MALME-3M melanoma, with MCF7 breast, with MDA-MB-231 breast, in the experiment with MDA-N and with NCI-H460 lung was greater than 100 µM throughout. In addition, the TGI in the experiment on NCI/ADR-RES ovarian, in the experiment with OVCAR-3 ovarian, in the experiment on OVCAR-4 ovarian, with RXF 393 renal, with SW-620 colon and in the experiment with T-47D breast was greater than 100 µM throughout. Also, the TGI in the experiment with UACC-257 melanoma and in the experiment with UO-31 renal was greater than 100 µM each time.
`CC1(C)CC[C@]2(C)[C@@H](O)C[C@]3(C)C(=CC[C@@H]4[C@@]5(C)CC[C@H](O)C(C)(C)[C@@H]5CC[C@]43C)[C@@H]2C1`: the TGI in the experiment on 786-0 renal, in the experiment with ACHN renal, in the experiment with DU-145 prostate, in the experiment with HCT-116 colon, in the experiment with HL-60(TB) leukemia and in the experiment on HOP-62 NSCLC was greater than 100 µM each time. Further, the TGI in the experiment on K-562 leukemia was greater than 100 µM; with MALME-3M melanoma it was 86.9 µM; with MCF7 breast it was greater than 100 µM; with MDA-MB-231 breast it was 48.6 µM; in the experiment on MDA-N, greater than 100 µM; in the experiment on NCI-H460 lung, greater than 100 µM. In addition, the TGI with NCI/ADR-RES ovarian was greater than 100 µM; in the experiment with OVCAR-3 ovarian, greater than 100 µM; with OVCAR-4 ovarian, greater than 100 µM; in the experiment with RXF 393 renal, 22.4 µM; in the experiment with SW-620 colon, greater than 100 µM; in the experiment on T-47D breast, 67.7 µM. Besides, the TGI in the experiment with UACC-257 melanoma and with UO-31 renal was greater than 100 µM in each case.
Turning to `C=CC(=C)CCC(Br)C(C)(C)Br` (stereo not given), the TGI was greater than 100 µM with 786-0 renal; greater than 100 µM with ACHN renal; greater than 100 µM in the experiment with DU-145 prostate; greater than 100 µM with HCT-116 colon; 55.1 µM with HL-60(TB) leukemia; greater than 100 µM with HOP-62 NSCLC. The TGI with K-562 leukemia, in the experiment with MALME-3M melanoma, in the experiment on MCF7 breast, with MDA-MB-231 breast, in the experiment on MDA-N and with NCI-H460 lung was greater than 100 µM in each case. Besides, the TGI in the experiment on NCI/ADR-RES ovarian, with OVCAR-3 ovarian, in the experiment on OVCAR-4 ovarian, with RXF 393 renal, in the experiment with SW-620 colon and in the experiment on T-47D breast was greater than 100 µM in each case. Besides, the TGI in the experiment with UACC-257 melanoma and in the experiment with UO-31 renal was greater than 100 µM each time.
Take `C1=C2C3=[N+](CCCC3)CC2Cc2sccc21` (stereo not given): the TGI in the experiment on 786-0 renal, in the experiment with ACHN renal, in the experiment on DU-145 prostate, with HCT-116 colon, in the experiment with HL-60(TB) leukemia and with HOP-62 NSCLC was greater than 100 µM throughout. The TGI in the experiment with K-562 leukemia, with MALME-3M melanoma, with MCF7 breast, in the experiment on MDA-MB-231 breast, with MDA-N and in the experiment with NCI-H460 lung was greater than 100 µM throughout. For the same compound, the TGI in the experiment on NCI/ADR-RES ovarian, with OVCAR-3 ovarian, with OVCAR-4 ovarian, in the experiment with RXF 393 renal, with SW-620 colon and with T-47D breast was greater than 100 µM each time. The TGI with UACC-257 melanoma and in the experiment with UO-31 renal was greater than 100 µM in each case.
In the case of `COc1ccc2c(c1)c1ccc3c(c1n2C)C(=O)C=CC3=O`, the TGI with 786-0 renal was determined as 14.7 µM; with ACHN renal it was 14.9 µM; with DU-145 prostate, 15 µM; in the experiment with HCT-116 colon, 14 µM; with HL-60(TB) leukemia, 4.94 µM; in the experiment with HOP-62 NSCLC, 66.5 µM. In addition, the TGI in the experiment on K-562 leukemia was determined as 4.89 µM; in the experiment on MALME-3M melanoma, 18.8 µM; with MCF7 breast it was 15.5 µM; in the experiment with MDA-MB-231 breast, 12.1 µM; in the experiment with MDA-N it was 24.1 µM; with NCI-H460 lung, 61.2 µM. In addition, the TGI in the experiment with NCI/ADR-RES ovarian was found to be 42.7 µM; in the experiment with OVCAR-3 ovarian it was 20.5 µM; with OVCAR-4 ovarian it was 15.6 µM; in the experiment on RXF 393 renal it was 10.4 µM; in the experiment with SW-620 colon it was 10.7 µM; with T-47D breast, 6.25 µM. In addition, the figures for the TGI with UACC-257 melanoma and in the experiment with UO-31 renal were 24.9 µM and 24.5 µM, respectively.
On to `CCCC(=O)Oc1c2ccsc2c(OC(=O)CCC)c2ccsc12`, for which the TGI in the experiment on 786-0 renal is 8.04 µM; in the experiment with ACHN renal, 9.99 µM; in the experiment with DU-145 prostate it was 1.47 µM; with HCT-116 colon it was 4.82 µM; with HL-60(TB) leukemia it was 3.79 µM; in the experiment on HOP-62 NSCLC it was 2.9 µM. For the same compound, the TGI was found to be 8.46 µM in the experiment on K-562 leukemia; 0.699 µM with MALME-3M melanoma; 7.55 µM with MCF7 breast; 10.3 µM in the experiment on MDA-MB-231 breast; 0.725 µM in the experiment with MDA-N; 3.12 µM in the experiment on NCI-H460 lung. Besides, the TGI in the experiment with NCI/ADR-RES ovarian was found to be 4.55 µM; with OVCAR-3 ovarian, 4.5 µM; in the experiment with OVCAR-4 ovarian, 5.7 µM; with RXF 393 renal, 5.86 µM; with SW-620 colon, 8.9 µM; with T-47D breast it was 12.1 µM. The TGI is 1.82 µM in the experiment on UACC-257 melanoma and 5.11 µM in the experiment on UO-31 renal.
Take `COC(=O)[C@H](Cc1ccccc1)NC(=O)OCC1OC(n2cc(C)c(=O)[nH]c2=O)CC1N=[N+]=[N-]` (stereo not given in full): the TGI in the experiment on 786-0 renal, in the experiment on ACHN renal, in the experiment with DU-145 prostate, in the experiment with HCT-116 colon, with HL-60(TB) leukemia and in the experiment with HOP-62 NSCLC was greater than 100 µM each time. Moreover, the TGI with K-562 leukemia, in the experiment on MALME-3M melanoma, in the experiment with MCF7 breast, in the experiment on MDA-MB-231 breast, in the experiment with MDA-N and with NCI-H460 lung was greater than 100 µM each time. Besides, the TGI in the experiment on NCI/ADR-RES ovarian, in the experiment with OVCAR-3 ovarian, in the experiment with OVCAR-4 ovarian, in the experiment with RXF 393 renal, in the experiment on SW-620 colon and in the experiment on T-47D breast was greater than 100 µM each time. Also, the TGI with UACC-257 melanoma and in the experiment on UO-31 renal was greater than 100 µM each time.
As for `Cc1ccc(F)c2[nH]c(-c3ccccc3)cc(=O)c12`, the TGI is greater than 43.4 µM with 786-0 renal; greater than 100 µM in the experiment on ACHN renal; greater than 100 µM in the experiment on DU-145 prostate; greater than 100 µM in the experiment on HCT-116 colon; greater than 100 µM with HL-60(TB) leukemia; greater than 100 µM in the experiment on HOP-62 NSCLC. For the same compound, the TGI with K-562 leukemia is greater than 100 µM; in the experiment on MALME-3M melanoma, greater than 100 µM; in the experiment with MCF7 breast it was greater than 20.4 µM; in the experiment on MDA-MB-231 breast, greater than 100 µM; with MDA-N, greater than 100 µM; in the experiment on NCI-H460 lung, greater than 100 µM. Also, the TGI in the experiment with NCI/ADR-RES ovarian is greater than 100 µM; in the experiment on OVCAR-3 ovarian, greater than 100 µM; in the experiment with OVCAR-4 ovarian, greater than 100 µM; in the experiment on RXF 393 renal, 21.5 µM; in the experiment on SW-620 colon, greater than 100 µM; with T-47D breast it was greater than 100 µM. The TGI with UACC-257 melanoma was greater than 100 µM; with UO-31 renal it was greater than 50.1 µM.
`C/C(=N\N)C(CN1CCOCC1)C(c1ccccc1)c1c(O)c2ccccc2oc1=O` (stereo not given): the TGI in the experiment with 786-0 renal, with ACHN renal, in the experiment on DU-145 prostate, with HCT-116 colon, in the experiment with HL-60(TB) leukemia and with HOP-62 NSCLC was greater than 100 µM each time. Moreover, the TGI in the experiment with K-562 leukemia, with MALME-3M melanoma, in the experiment with MCF7 breast, with MDA-MB-231 breast, with MDA-N and in the experiment on NCI-H460 lung was greater than 100 µM throughout. Besides, the TGI is greater than 100 µM with NCI/ADR-RES ovarian; greater than 100 µM in the experiment on OVCAR-3 ovarian; greater than 100 µM in the experiment on OVCAR-4 ovarian; greater than 51.9 µM in the experiment with RXF 393 renal; greater than 100 µM with SW-620 colon; greater than 100 µM with T-47D breast. In addition, the TGI in the experiment on UACC-257 melanoma and in the experiment with UO-31 renal was greater than 100 µM in each case.

For the origin of these results see PubChem BioAssay (NCI).
